Legend:
[1] = antioxidant (antiradical) activity using DPPH radical
Procedure: The antioxidant (AO) activity of DAG-DHLA was determined using DPPH. radical following the published methods (Brand-Williams, W. et al. (1995). Lebensm. Wiss. U.-Technol. 28:25-30).
Antioxidant solution in toluene (0.1 mL) was added to 3.9 mL of a 6×10^−5 mol/L toluene DPPH. solution. Absorbance was determined at 515 nm at 0 min, and every 30 min until the reaction reached a plateau. For each DAG-DHLA concentration tested, the reaction kinetics was plotted. From this graph, the percentage of DPPH. remaining at the steady state was recorded and the values transferred onto another graph showing the percentage of residual DPPH. at the steady state as a function of the molar ratio of antioxidant to DPPH..

[2] = acute food intake experiment in rats; type: in vivo
Procedure: An acute experiment with rats has been conducted recently after complying with Swedish Ethical regulations. Seven groups of rats (n=4-5) were given an acute test dose (100-200 mg/kg) of the control vehicle (rapeseed oil) and test conjugates. Part of the results is shown here in FIG. 4.

Row | EC50 (Efficient concentration), amount of antioxidant necessary to decrease the initial DPPH. concentration by 50% ([1]; 6×10^−5 mol/L DPPH. in toluene, steady state, 515 nm) | Structure (SMILES) | antioxidant activity (in words) ([1]; DPPH. in toluene, in parallel, compared with DAG-DHLA) | acute food intake ([2]; acute test dose (100-200 mg/kg), compared with the DAG-DHLA result) | Number of reduced DPPH. (1/EC100), DPPH. moles reduced by one mole of antioxidant ([1]; DPPH. in toluene) | Kinetic behaviour ([1]; reaction with DPPH. in toluene, absorbance at 515 nm) | acute food intake ([2]; acute test dose 200 mg/kg, after 4 hours, compared to vehicle (rapeseed oil), FIG. 4)
1 |  | CCCCCCCC/C=C\CCCCCCCC(=O)OCC(COC(=O)CCCCCCC/C=C\CCCCCCCC)OC(=O)CCCCC1CCSS1 (stereo not drawn) [compound 1, 1,3-Dioleoyl-2-lipoyl-sn-glycerol] | negligible antioxidant activity | Rather similar result |  |  | 
2 | 0.21 (mol/L) AO/(mol/L) DPPH. | CCCCCCCC/C=C\CCCCCCCC(=O)OCC(COC(=O)CCCCCCC/C=C\CCCCCCCC)OC(=O)CCCCC(S)CCS (stereo not drawn) [compound 2, 1,3-Dioleoyl-2-dihydrolipoate-sn-glycerol] |  |  | 2.34 | Rapid | seems to block food intake

Source: patent publication US8629175B2, “Functional food additives” (priority 2009, dated 2014)
